Measurements from patent US20040132188A1, “Use of non-complexing peptides for the preparation of a composition for transfection of a polynucleotide into a cell and compositions useful in gene therapy” (priority 2001, published 2004).
“Also recorded” adds a separate entry of the source. Ends that are not written are not given here.

Columns and labels:
[1] = system: CHO cells; assay: Transfection in vitro, luciferase plasmid pTG11236; type: cell-based
Experimental: A comparison of ppTG1 and KALA was carried out in HeLa and CHO cells. 5×10^4 cells were seeded on 24 well plates. The next day, cells were transfected with 500 ng and 50 ng of pTG11236, complexed with ppTG1 or KALA in 30μl 0.9% NaCl. The charge ratio±varied from 1, 2, 3, 4, 7 to 10. Cells were harvested 20 h after transfection and lysis was obtained in 100 μl Promega lysis buffer. Luciferase activity and total protein concentrations in 20 μl were determined.

[2] = Liposome leakage assay, POPC/cholesterol 3:2 liposomes; type: biochemical; settings: POPC/chol liposomes, pH 5
[3] = system: HeLa cells; assay: Transfection in the presence of Bafilomycin A; type: cell-based; settings: 175 nM Bafilomycin A, 150 ng pTG11236
Experimental: Transfection in the presence of Bafilomycin A: 6×10^4 HeLa cells were plated on 24 well plates. Cells were treated with 175 nM Bafilomycin A 30 min before and throughout the transfection (1 h incubation of cells with transfection mix in the absence of serum).
Bafilomycin A is a specific inhibitor of the vacuolar proton pump. Treatment with Bafilomycin inhibits the acidification of late endosomes. HeLa cells were treated with Bafilomycin A (175 nM) 30 min before and throughout the transfection (1 h incubation with transfection complexes in the absence of serum). 6×10^4 cells were transfected with 150 ng pTG11236 using PEI or ppTG1. The luciferase assay was performed 1 day after transfection.

[4] = system: B6SJL mice, lungs; assay: In vivo gene transfer after intravenous injection, luciferase activity in the lungs
Experimental: Mice were sacrificed at day 1.
Lungs were tested for luciferase activity.

[5] = system: plasmid pTG11236; assay: Gel retardation assay (DNA binding activity)
Experimental: 3 μg of the plasmid pTG11236 were incubated with increasing amounts of the respective peptide in a final volume of 30 μl with 0.9% NaCl. After 20 min of incubation at room temperature, 6 μl 5× loading buffer (glycerol and bromphenol blue in TAE buffer) were added and 10 μl of these solutions were analyzed on a 1% agarose gel in the presence of ethidium bromide.
The ability of ppTG1 peptide to complex DNA was analyzed by gel retardation assays. […] After 20 minutes incubation at room temperature, loading buffer was added and 10 μl of the resulting solution were analyzed on a 1% agarose gel.
ppTG1 derivatives as they are indicated in Materials and Methods, were tested for their capacity to bind plasmid DNA by gel retardation assays.

[6] = Liposome leakage assay, calcein-containing POPC liposomes; type: biochemical
Experimental: (§1) Leakage activity was plotted against peptide concentration.
The peptide ppTG1 was tested for its capacity to cause membrane disruption in a liposome leakage assay with POPC liposomes containing the fluorescent product calcein. […] Release of calcein by Triton X-100 treatment was taken as positive control reaction, incubation with water served as negative control. The membranolytic activity of peptide ppTG1 (20 μg as starting point) was compared with those of equal quantities (20 μg) of JTS-1, JTS-1-K13 and KALA.

[7] = system: HeLa cells; assay: Transfection in vitro, luciferase plasmid pTG11236; type: cell-based
Experimental: Cells were plated on 24 well plates at a density of 4×10^4 (293-EBNA ) or 7×10^4 (HeLa, Renca) cells/well in DMEM supplemented with 10% FCS. The next day, the medium was replaced by 200 μl serum-free DMEM and plasmid (PTG11056 or pTG11236)/peptide complexes or plasmid/peptide/lipid complexes were prepared in 30 μl 0.9% NaCl or 5% glucose. After 20 min at room temperature these complexes were added to the cells which were then incubated for 2-3 h at 37° C. and 5% CO2 before 1 ml serum-containing DMEM was added. Approximately 20 hours later, cells were lysed by addition of 100 μl 1× Promega lysis buffer, 20 μl of the lysates were analysed for luciferase activity. Proteins were quantified with the bicinchonic acid (BCA) colorimetric method (Smith, Anal. Biochem. 150 (1985), 76-85). […]
HeLa cells were seeded at a density of 6×10^4 cells on 24 well plates. The next day, cells were incubated with 200 μl serum-free medium, 30 μl of plasmid (50 ng)/peptide/lipid mixtures were added and incubated for 3 h at 37° C. in 5% CO2. 1 ml of DMEM+10% FCS was then added. The next day, the medium was removed and cells were washed with 500 μl of PBS and subsequently treated with 100 μl of Promega lysis buffer. Plates were stored at −80° C. until luciferase activity was measured of 20 μl of the cell lysate. The protein assay was performed using the Pierce BCA kit.
JTS1 was dissolved to 1 mg/ml in 1 mM NaOH and mixed with DNA diluted in 5% glucose. ppTG1 was then added to this solution. The pcTG90/DOPE ppTG1 mixtures were prepared as described in Example 6. Transfection assays were performed on HeLa cells with 50 ng of plasmid as described in Example 6.
The series of ppTG1 derivatives listed in Material and Methods were tested for their gene transfer efficiencies in Hela cells. 6×10^4 cells were transfected with 50 ng pTG11236 complexed with increasing amounts of peptide. Luciferase activity was analyzed day 1 after transfection. The results are shown in FIG. 10B (ppTG20, ppTG21), FIG. 10C (ppTG25, ppTG26, ppTG27), FIG. 10D (ppTG28 to ppTG33), FIG. 10E (PEG-ppTG1 and PEG-ppTG20), FIG. 10F (ppTG22 to ppTG24) and FIG. 10G (ppTG20-D).

[8] = Liposome leakage assay, POPC/cholesterol 3:2 liposomes; type: biochemical
Text: FIG. 9: Liposome leakage assay. […] Emitted fluorescence was plotted against peptide concentration. […] C) Comparison of ppTG1, ppTG20 and ppTG21 at pH 7.
as §1

GLFKALLKLLKSLWKLLLKA
more efficient in gene transfer than KALA ([1]; 50 ng pTG11236): 68 fold
more efficient in gene transfer than KALA ([1]; 500 ng pTG11236): 9 fold
more efficient than the complex comprising KALA ([1]; CHO cells, in the best case): 2500 fold
liposome leakage activity / calcein release [2]: efficiently liberate calcein
effect of Bafilomycin A on transfection efficiency [3]: did not influence
re-administration of peptide/plasmid complexes ([4]; at day 3 after the first injection): refractory
re-administration of peptide/plasmid complexes ([4]; at day 14 after the first injection): re-appearance of reporter gene expression
mice with gene expression in the lung ([4]; complexes of pTG11236 and peptide, intravenous, day 1): 5 out of 5
gene transfer efficiency in the lung ([4]; pTG11236/peptide complexes intravenously injected, luciferase day 1): at least comparable to gene transfer with the optimized lipoplexes; also recorded: comparable to those obtained with the lipoplexes; also recorded: better than with JTS-1-K13
improvement of gene expression by presence of peptide in complexes comprising cationic lipids ([4]; pcTG90/DOPE 1:2 complexes, intravenous, lung, day 1): 10 factor
DNA complexed ([5]; 1 μg peptide (0.35 nmol), 3 μg pTG11236): 50%
amount of peptide giving retardation of plasmid ([5]; 3 μg plasmid DNA pTG11236 (0,8 pmol)): 4 µg
membrane disruption ([6]; pH 5): capable of causing membrane disruption
membrane disruption ([6]; pH 7): capable of causing membrane disruption
improvement of the transfection efficiency of pcTG90/DOPE ([7]; 50 ng plasmid, final charge ratio 3, 5 and 10, ppTG1 contributing 1/3, 1/5 and 1/10 of the positive charge): at least 1 log
improvement of the transfection efficiency of pcTG90/DOPE ([7]; 50 ng plasmid, final charge ratio 5 and 10, ppTG1 contributing 2/3 and 7/10 of the positive charge): 2 log
transfection, peptide alone ([7]; 50 ng plasmid, final charge ratio of 3): better results than pcTG90/DOPE alone
comparison as transfection reagent ([7]; 0.5 μg or 0.05 μg pTG11236): better transfection reagent than JTS-1-K13
luciferase activities ([7]; 0.5 μg or 0.05 μg pTG11236 with 1.17 μg or 0.117 μg peptide, charge ratio 1.8): comparable luciferase activities as observed for DNA formulated with Lipofectin
more efficient than the complex comprising KALA ([7]; HeLa cells, in the best case): 3000 fold
liposome leakage activity ([8]; POPC/Chol (3:2) liposomes, pH not separated (compared at pH 5 and pH 7)): destabilizes efficiently
liposome leakage activity / calcein release ([8]; POPC/chol liposomes, pH 7): efficiently liberate calcein
liposome leakage of peptide/plasmid pTG11236 complexes ([8]; charge ratios (P/N) of 1 or 0.8, pH 7): slightly reduced
liposome leakage of peptide/plasmid pTG11236 complexes ([8]; excess of peptide, P/N 5 or 10, pH 7): comparable to free ppTG1
